ChEMBL document CHEMBL3044809, “Design, synthesis, and fungicidal activities of new strobilurin derivatives” (2007)
Values after ≈ are worked out from the molar mass of the structure shown.

These compounds were tested on Botrytis (assay: Antifungal activity against Botrytis cinereapers assessed as inhibition rate at 50 ug/mL). Settings: not given.
Type: functional
Work on `CO/N=C(/C(=O)OC)c1ccccc1CSc1nc2nc(C)cc(C)n2n1` yielded an inhibition at 50 µg/mL of 14%. For `CO/C=C(/C(=O)OC)c1ccccc1CSc1nnc(CSc2nc3nc(C)cc(C)n3n2)o1`, the inhibition at 50 µg/mL was 36%. For `CO/C=C(/C(=O)OC)c1ccccc1CSc1nn2c(C)nnc2s1`, the inhibition at 50 µg/mL was 41%. In the case of `CO/N=C(/C(=O)OC)c1ccccc1COc1ccccc1C` [KRESOXIM-METHYL], the inhibition at 50 µg/mL is reported as 50%. `CO/C=C(/C(=O)OC)c1ccccc1CSc1nc2ccccc2[nH]1` was tested, and the inhibition at 50 µg/mL was 47%. `CO/C=C(/C(=O)OC)c1ccccc1CSc1nnc(N)s1` showed an inhibition at 50 µg/mL of 11%. In the case of `CO/N=C(/C(=O)OC)c1ccccc1CSc1nnc(CSc2nc3nc(C)cc(C)n3n2)s1`, the inhibition at 50 µg/mL is reported as 64%. Work on `CC(C)(C)C(=O)C(Oc1ccc(Cl)cc1)n1cncn1` (stereo unspecified) [TRIADIMEFON] yielded an inhibition at 50 µg/mL of 84%. `CO/N=C(/C(=O)OC)c1ccccc1CSc1nc(C)cc(C)n1` was tested, and the inhibition at 50 µg/mL was 27%. With `CO/C=C(/C(=O)OC)c1ccccc1CSc1nnc(CSc2nc3nc(C)cc(C)n3n2)n1N` the inhibition at 50 µg/mL was 14%. With `CO/N=C(/C(=O)OC)c1ccccc1CSc1nc2ccccc2[nH]1` the inhibition at 50 µg/mL was 77%.

These compounds were tested on Pseudoperonospora cubensis (assay: Antifungal activity against Pseudoperonospora cubensis inoculated in inoculated in cucumber plant assessed as preventive fungicidal activity at 100 ug/mL measured after 7 days). Settings: not given.
Type: functional
With `CO/N=C(/C(=O)OC)c1ccccc1COc1ccccc1C` [KRESOXIM-METHYL] the Activity was 80%. With `CO/N=C(/C(=O)OC)c1ccccc1CSc1nc2ccccc2[nH]1` the Activity was 0%.

Each compound was assayed on Colletotrichum gossypii (assay: Antifungal activity against Colletotrichum gossypii assessed as inhibition rate at 50 ug/mL). Settings: not given.
Type: functional
`CO/N=C(/C(=O)OC)c1ccccc1CSc1nc2nc(C)cc(C)n2n1` gave an inhibition at 50 µg/mL of 35%. Compound `CO/C=C(/C(=O)OC)c1ccccc1CSc1nnc(CSc2nc3nc(C)cc(C)n3n2)o1` has an inhibition at 50 µg/mL of 39%. Work on `CO/C=C(/C(=O)OC)c1ccccc1CSc1nn2c(C)nnc2s1` yielded an inhibition at 50 µg/mL of 50%. With `CO/N=C(/C(=O)OC)c1ccccc1COc1ccccc1C` [KRESOXIM-METHYL] the inhibition at 50 µg/mL was 50%. Compound `CO/C=C(/C(=O)OC)c1ccccc1CSc1nc2ccccc2[nH]1` has an inhibition at 50 µg/mL of 52%. `CO/C=C(/C(=O)OC)c1ccccc1CSc1nnc(N)s1` showed an inhibition at 50 µg/mL of 39%. `CO/N=C(/C(=O)OC)c1ccccc1CSc1nnc(CSc2nc3nc(C)cc(C)n3n2)s1` showed an inhibition at 50 µg/mL of 32%. `CC(C)(C)C(=O)C(Oc1ccc(Cl)cc1)n1cncn1` (stereo unspecified) [TRIADIMEFON] gave an inhibition at 50 µg/mL of 95%. In the case of `CO/N=C(/C(=O)OC)c1ccccc1CSc1nc(C)cc(C)n1`, the inhibition at 50 µg/mL is reported as 59%. `CO/C=C(/C(=O)OC)c1ccccc1CSc1nnc(CSc2nc3nc(C)cc(C)n3n2)n1N` gave an inhibition at 50 µg/mL of 35%. `CO/N=C(/C(=O)OC)c1ccccc1CSc1nc2ccccc2[nH]1` was tested, and the inhibition at 50 µg/mL was 82%.

What follows are compounds tested on Fusarium oxysporum (assay: Antifungal activity against Fusarium oxysporum assessed as inhibition rate at 50 ug/mL). Settings: not given.
Type: functional
Work on `CO/N=C(/C(=O)OC)c1ccccc1CSc1nc2nc(C)cc(C)n2n1` yielded an inhibition at 50 µg/mL of 50%. Work on `CO/C=C(/C(=O)OC)c1ccccc1CSc1nnc(CSc2nc3nc(C)cc(C)n3n2)o1` yielded an inhibition at 50 µg/mL of 36%. Work on `CO/C=C(/C(=O)OC)c1ccccc1CSc1nn2c(C)nnc2s1` yielded an inhibition at 50 µg/mL of 59%. Work on `CO/N=C(/C(=O)OC)c1ccccc1COc1ccccc1C` [KRESOXIM-METHYL] yielded an inhibition at 50 µg/mL of 61%. `CO/C=C(/C(=O)OC)c1ccccc1CSc1nc2ccccc2[nH]1` showed an inhibition at 50 µg/mL of 45%. Work on `CO/C=C(/C(=O)OC)c1ccccc1CSc1nnc(N)s1` yielded an inhibition at 50 µg/mL of 65%. Compound `CO/N=C(/C(=O)OC)c1ccccc1CSc1nnc(CSc2nc3nc(C)cc(C)n3n2)s1` has an inhibition at 50 µg/mL of 54%. `CC(C)(C)C(=O)C(Oc1ccc(Cl)cc1)n1cncn1` (stereo unspecified) [TRIADIMEFON] was tested, and the inhibition at 50 µg/mL was 86%. `CO/N=C(/C(=O)OC)c1ccccc1CSc1nc(C)cc(C)n1` showed an inhibition at 50 µg/mL of 76%. `CO/C=C(/C(=O)OC)c1ccccc1CSc1nnc(CSc2nc3nc(C)cc(C)n3n2)n1N` showed an inhibition at 50 µg/mL of 44%. `CO/N=C(/C(=O)OC)c1ccccc1CSc1nc2ccccc2[nH]1` gave an inhibition at 50 µg/mL of 72%.

What follows are compounds tested on Podosphaera fuliginea (assay: Antifungal activity against Podosphaera fuliginea inoculated in inoculated in cucumber plant assessed as preventive fungicidal activity at 100 ug/mL measured after 7 days). Settings: not given.
Type: functional
In the case of `CO/N=C(/C(=O)OC)c1ccccc1COc1ccccc1C` [KRESOXIM-METHYL], the Activity is reported as 100%. `CO/N=C(/C(=O)OC)c1ccccc1CSc1nc2ccccc2[nH]1` was tested, and the Activity was 0%.

The compounds below were run on Podosphaera fuliginea (assay: Antifungal activity against Podosphaera fuliginea inoculated in inoculated in cucumber plant assessed as preventive fungicidal activity at 50 ug/mL measured after 7 days). Settings: not given.
Type: functional
For `CO/N=C(/C(=O)OC)c1ccccc1COc1ccccc1C` [KRESOXIM-METHYL], the Activity was 100%.

These compounds were tested on Pseudoperonospora cubensis (assay: Antifungal activity against Pseudoperonospora cubensis inoculated in inoculated in cucumber plant assessed as preventive fungicidal activity at 25 ug/mL measured after 7 days). Settings: not given.
Type: functional
Compound `CO/N=C(/C(=O)OC)c1ccccc1COc1ccccc1C` [KRESOXIM-METHYL] has an Activity of 27%.

The compounds below were run on Pseudoperonospora cubensis (assay: Antifungal activity against Pseudoperonospora cubensis inoculated in inoculated in cucumber plant assessed as preventive fungicidal activity at 50 ug/mL measured after 7 days). Settings: not given.
Type: functional
Compound `CO/N=C(/C(=O)OC)c1ccccc1COc1ccccc1C` [KRESOXIM-METHYL] has an Activity of 56%.

The compounds below were run on Pseudoperonospora cubensis (assay: Antifungal activity against Pseudoperonospora cubensis inoculated in inoculated in cucumber plant assessed as preventive fungicidal activity measured after 7 days). Settings: 168 h.
Type: functional
For `CO/N=C(/C(=O)OC)c1ccccc1COc1ccccc1C` [KRESOXIM-METHYL], the EC90 was 155 µg/mL (≈ 494 µM).

The compounds below were run on Rhizoctonia solani (assay: Antifungal activity against Rhizoctonia solani assessed as inhibition rate at 50 ug/mL). Settings: not given.
Type: functional
`CO/N=C(/C(=O)OC)c1ccccc1CSc1nc2nc(C)cc(C)n2n1` was tested, and the inhibition at 50 µg/mL was 69%. In the case of `CO/C=C(/C(=O)OC)c1ccccc1CSc1nnc(CSc2nc3nc(C)cc(C)n3n2)o1`, the inhibition at 50 µg/mL is reported as 73%. For `CO/C=C(/C(=O)OC)c1ccccc1CSc1nn2c(C)nnc2s1`, the inhibition at 50 µg/mL was 83%. Compound `CO/N=C(/C(=O)OC)c1ccccc1COc1ccccc1C` [KRESOXIM-METHYL] has an inhibition at 50 µg/mL of 70%. In the case of `CO/C=C(/C(=O)OC)c1ccccc1CSc1nc2ccccc2[nH]1`, the inhibition at 50 µg/mL is reported as 78%. `CO/C=C(/C(=O)OC)c1ccccc1CSc1nnc(N)s1` was tested, and the inhibition at 50 µg/mL was 61%. In the case of `CO/N=C(/C(=O)OC)c1ccccc1CSc1nnc(CSc2nc3nc(C)cc(C)n3n2)s1`, the inhibition at 50 µg/mL is reported as 78%. Compound `CC(C)(C)C(=O)C(Oc1ccc(Cl)cc1)n1cncn1` (stereo unspecified) [TRIADIMEFON] has an inhibition at 50 µg/mL of 90%. In the case of `CO/N=C(/C(=O)OC)c1ccccc1CSc1nc(C)cc(C)n1`, the inhibition at 50 µg/mL is reported as 73%. `CO/C=C(/C(=O)OC)c1ccccc1CSc1nnc(CSc2nc3nc(C)cc(C)n3n2)n1N` gave an inhibition at 50 µg/mL of 73%. `CO/N=C(/C(=O)OC)c1ccccc1CSc1nc2ccccc2[nH]1` gave an inhibition at 50 µg/mL of 90%.

These compounds were tested on Podosphaera fuliginea (assay: Antifungal activity against Podosphaera fuliginea inoculated in inoculated in cucumber plant assessed as preventive fungicidal activity measured after 7 days). Settings: 168 h.
Type: functional
For `CO/N=C(/C(=O)OC)c1ccccc1COc1ccccc1C` [KRESOXIM-METHYL], the EC90 was 7.3 µg/mL (≈ 23.3 µM).

What follows are compounds tested on Fusarium graminearum (assay: Antifungal activity against Fusarium graminearum assessed as inhibition rate at 50 ug/mL). Settings: not given.
Type: functional
For `CO/N=C(/C(=O)OC)c1ccccc1CSc1nc2nc(C)cc(C)n2n1`, the inhibition at 50 µg/mL was 50%. `CO/C=C(/C(=O)OC)c1ccccc1CSc1nnc(CSc2nc3nc(C)cc(C)n3n2)o1` showed an inhibition at 50 µg/mL of 36%. Work on `CO/C=C(/C(=O)OC)c1ccccc1CSc1nn2c(C)nnc2s1` yielded an inhibition at 50 µg/mL of 53%. `CO/N=C(/C(=O)OC)c1ccccc1COc1ccccc1C` [KRESOXIM-METHYL] gave an inhibition at 50 µg/mL of 53%. For `CO/C=C(/C(=O)OC)c1ccccc1CSc1nc2ccccc2[nH]1`, the inhibition at 50 µg/mL was 53%. Compound `CO/C=C(/C(=O)OC)c1ccccc1CSc1nnc(N)s1` has an inhibition at 50 µg/mL of 40%. For `CO/N=C(/C(=O)OC)c1ccccc1CSc1nnc(CSc2nc3nc(C)cc(C)n3n2)s1`, the inhibition at 50 µg/mL was 45%. In the case of `CC(C)(C)C(=O)C(Oc1ccc(Cl)cc1)n1cncn1` (stereo unspecified) [TRIADIMEFON], the inhibition at 50 µg/mL is reported as 72%. For `CO/N=C(/C(=O)OC)c1ccccc1CSc1nc(C)cc(C)n1`, the inhibition at 50 µg/mL was 61%. `CO/C=C(/C(=O)OC)c1ccccc1CSc1nnc(CSc2nc3nc(C)cc(C)n3n2)n1N` showed an inhibition at 50 µg/mL of 43%. In the case of `CO/N=C(/C(=O)OC)c1ccccc1CSc1nc2ccccc2[nH]1`, the inhibition at 50 µg/mL is reported as 69%.

The compounds below were run on Dothiorella gregaria (assay: Antifungal activity against Dothiorella gregaria assessed as inhibition rate at 50 ug/mL). Settings: not given.
Type: functional
Work on `CO/N=C(/C(=O)OC)c1ccccc1CSc1nc2nc(C)cc(C)n2n1` yielded an inhibition at 50 µg/mL of 78%. `CO/C=C(/C(=O)OC)c1ccccc1CSc1nnc(CSc2nc3nc(C)cc(C)n3n2)o1` showed an inhibition at 50 µg/mL of 73%. `CO/C=C(/C(=O)OC)c1ccccc1CSc1nn2c(C)nnc2s1` gave an inhibition at 50 µg/mL of 82%. `CO/N=C(/C(=O)OC)c1ccccc1COc1ccccc1C` [KRESOXIM-METHYL] showed an inhibition at 50 µg/mL of 82%. In the case of `CO/C=C(/C(=O)OC)c1ccccc1CSc1nc2ccccc2[nH]1`, the inhibition at 50 µg/mL is reported as 87%. Work on `CO/C=C(/C(=O)OC)c1ccccc1CSc1nnc(N)s1` yielded an inhibition at 50 µg/mL of 55%. In the case of `CO/N=C(/C(=O)OC)c1ccccc1CSc1nnc(CSc2nc3nc(C)cc(C)n3n2)s1`, the inhibition at 50 µg/mL is reported as 58%. `CC(C)(C)C(=O)C(Oc1ccc(Cl)cc1)n1cncn1` (stereo unspecified) [TRIADIMEFON] was tested, and the inhibition at 50 µg/mL was 61%. `CO/N=C(/C(=O)OC)c1ccccc1CSc1nc(C)cc(C)n1` gave an inhibition at 50 µg/mL of 82%. In the case of `CO/C=C(/C(=O)OC)c1ccccc1CSc1nnc(CSc2nc3nc(C)cc(C)n3n2)n1N`, the inhibition at 50 µg/mL is reported as 78%. In the case of `CO/N=C(/C(=O)OC)c1ccccc1CSc1nc2ccccc2[nH]1`, the inhibition at 50 µg/mL is reported as 87%.

What follows are compounds tested on Podosphaera fuliginea (assay: Antifungal activity against Podosphaera fuliginea inoculated in inoculated in cucumber plant assessed as preventive fungicidal activity at 25 ug/mL measured after 7 days). Settings: not given.
Type: functional
Work on `CO/N=C(/C(=O)OC)c1ccccc1COc1ccccc1C` [KRESOXIM-METHYL] yielded an Activity of 98%.
